The text below walks through data of patent publication US20260070945A1, “MACROCYCLIC IMMUNOMODULATORS” (Bristol-Myers Squibb Company, priority 2022, published 2026).

The IC50 is the point on the concentration scale where inhibition reaches its midpoint.

SMILES strings stand for the structures. Where a SMILES comes first, the peptide text is derived from it. Bridges are numbered along the chain shown (N, C = ends). [ ]: non-standard residue; d: D form. The star is where a group is joined. ξ: configuration not given here. Phe(4-COOH) = N[C@@H](Cc1ccc(C(=O)O)cc1)C(=O)O; Bip = N[C@@H](Cc1ccc(-c2ccccc2)cc1)C(=O)O; Phe(3-Me) = Cc1cccc(C[C@H](N)C(=O)O)c1; NH(CH2)12COOH = O=C(O)CCCCCCCCCCCCN*; Val(3-OH) = CC(C)(O)[C@H](N)C(=O)O; 4Pal = N[C@@H](Cc1ccncc1)C(=O)O; 3Thi = N[C@@H](Cc1ccsc1)C(=O)O; Aad = N[C@@H](CCCC(=O)O)C(=O)O; Cha = N[C@@H](CC1CCCCC1)C(=O)O; Cit = NC(=O)NCCC[C@H](N)C(=O)O; Ile(3ξ) = CCC(C)[C@H](N)C(=O)O; Thr(3ξ) = CC(O)[C@H](N)C(=O)O; 12Ado = NCCCCCCCCCCCC(=O)O; Carboxymethyl = O=C(O)C*; NMeA = CN[C@@H](C)C(=O)O; Orn = NCCC[C@H](N)C(=O)O; Aun = NCCCCCCCCCCC(=O)O; Dab = NCC[C@H](N)C(=O)O; AEEA = NCCOCCOCC(=O)O

In one assay the target is T1, PD-1/PD-L1 interaction (PE-labeled human PD-L1-Ig binding to Jurkat cell line over-expressing human PD-1) (Homo sapiens, UniProt Q15116).
T1 construct: expressed in transfected cells; host or cells: Jurkat
T1 sequence (Q15116 25-288): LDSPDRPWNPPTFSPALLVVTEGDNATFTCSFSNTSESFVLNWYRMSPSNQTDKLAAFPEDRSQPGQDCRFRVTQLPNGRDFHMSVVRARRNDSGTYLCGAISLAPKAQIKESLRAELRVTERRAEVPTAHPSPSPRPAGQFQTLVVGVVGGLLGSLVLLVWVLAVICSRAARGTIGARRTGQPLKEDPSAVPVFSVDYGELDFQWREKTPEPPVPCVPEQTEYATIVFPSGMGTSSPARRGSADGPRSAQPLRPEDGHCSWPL
Nature of the assay: Jurkat-PD-1 Cell Binding High-Content Screening Assay (CBA). The conditions noted are these: Jurkat-hPD-1 cells, PE-labeled PD-L1-Ig 20 nM final; read-out: Jurkat HPD1 PDL1 IC50. In a few lines:
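Jurkat cells overexpressing human PD-1 (8×10^3/well, DMEM + 10% FCS) preincubated with compound 2 h at 37 °C, then PE-labelled human PD-L1-Ig (20 nM final) for 1 h. Cells fixed in paraformaldehyde with Hoechst 33342; bound PD-L1 quantified by high-content imaging.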
`CC(=O)NCCCC[C@@H]1NC(=O)[C@H](Cc2ccc(-c3ccccc3)cc2)NC(=O)[C@H](C(C)C)NC(=O)[C@H](Cc2c[nH]c3ccccc23)NC(=O)[C@H](CC(=O)O)NC(=O)[C@H](Cc2ccc(OCC(=O)O)cc2)NC(=O)[C@H](C(C)O)NC(=O)CSC[C@@H](C(=O)N[C@@H](CCCN)C(=O)N[C@@H](CO)C(=O)NCCCCCCCCCCCC(=O)O)NC(=O)[C@H](CCCN)NC(=O)[C@H](C(C)C)NC(=O)[C@H](CC2CCCCC2)NC(=O)[C@H](CCN)NC(=O)[C@@H](CC(C)C)NC(=O)[C@H](C)N(C)C1=O` (stereo partly drawn) [Example 2406] ({CH2CO}-[Thr(3ξ)]Y(Carboxymethyl)DWV[Bip]K(Ac)[NMeA][dL][Dab][Cha]V[Orn]C[Orn]S[12Ado]-OH; thioether N-14): the IC50 worked out at 159 nM.
Turning to `Cc1cccc(C[C@@H]2NC(=O)[C@H](CC(=O)O)NC(=O)[C@H](Cc3ccc(C(=O)O)cc3)NC(=O)[C@H](Cc3ccc(OCC(=O)O)cc3)NC(=O)CSC[C@@H](C(=O)N[C@H](CC(N)=O)C(=O)NCCCCCCCCCCC(=O)O)NC(=O)[C@H](C(C)O)NC(=O)[C@H](C(C)C)NC(=O)[C@H](CC3CCCCC3)NC(=O)[C@H](CCN)NC(=O)[C@@H](CC(C)C)NC(=O)[C@H](C)N(C)C(=O)[C@H](C(C)C)NC(=O)[C@H](Cc3ccc(-c4ccccc4)cc3)NC(=O)[C@H](CC(C)C)NC2=O)c1` (stereo partly drawn) [Example 2326] ({CH2CO}-Y(Carboxymethyl)[Phe(4-COOH)]D[Phe(3-Me)]L[Bip]V[NMeA][dL][Dab][Cha]V[Thr(3ξ)]C[dN][Aun]-OH; thioether N-14), the IC50 is 41.3 nM.
With `Cc1cccc(C[C@@H]2NC(=O)[C@H](CC(=O)O)NC(=O)[C@H](Cc3ccc(OCC(=O)O)cc3)NC(=O)[C@H]([C@@H](C)O)NC(=O)CSC[C@@H](C(=O)N[C@@H](CCCN)C(=O)NCCOCCOCC(=O)NCCCCCCCCCCC(=O)O)NC(=O)[C@H]([C@@H](C)O)NC(=O)[C@H](C(C)C)NC(=O)[C@H](CC3CCCCC3)NC(=O)[C@H](CCN)NC(=O)[C@@H](CC(C)C)NC(=O)[C@H](C)N(C)C(=O)[C@H](Cc3ccc(OCC(=O)O)cc3)NC(=O)[C@H](Cc3ccc(-c4ccccc4)cc3)NC(=O)[C@H](Cc3ccc(OCC(=O)O)cc3)NC2=O)c1` [Example 1371] ({CH2CO}-TY(Carboxymethyl)D[Phe(3-Me)]Y(Carboxymethyl)[Bip]Y(Carboxymethyl)[NMeA][dL][Dab][Cha]VTC[Orn][AEEA][Aun]-OH; thioether N-14), the IC50 is 27.5 nM.
`Cc1cccc(C[C@@H]2NC(=O)[C@H](CC(=O)O)NC(=O)[C@H](Cc3ccc(C(=O)O)cc3)NC(=O)[C@H]([C@@H](C)O)NC(=O)CSC[C@@H](C(=O)N[C@@H](CCN)C(=O)NCCOCCOCC(=O)NCCCCCCCCCCCCC(=O)O)NC(=O)[C@H](CCC(=O)O)NC(=O)[C@H](C(C)(C)O)NC(=O)[C@H](CC3CCCCC3)NC(=O)[C@H](CCN)NC(=O)[C@@H](CC(C)C)NC(=O)[C@H](C)N(C)C(=O)[C@H](Cc3ccc(C(=O)O)cc3)NC(=O)[C@H](Cc3ccc(-c4ccccc4)cc3)NC(=O)[C@H](Cc3ccc(C(=O)O)cc3)NC2=O)c1` [Example 1432] ({CH2CO}-T[Phe(4-COOH)]D[Phe(3-Me)][Phe(4-COOH)][Bip][Phe(4-COOH)][NMeA][dL][Dab][Cha][Val(3-OH)]EC[Dab][AEEA]-{NH(CH2)12COOH}; thioether N-14): the IC50 was determined as 105 nM.
`Cc1cccc(C[C@@H]2NC(=O)[C@H](CC(=O)O)NC(=O)[C@H](Cc3ccc(OCC(=O)O)cc3)NC(=O)[C@@H]([C@H](C)O)NC(=O)CSC[C@@H](C(=O)NCCOCCOCC(=O)NCCCCCCCCCCC(=O)O)NC(=O)[C@H]([C@@H](C)O)NC(=O)[C@H](C(C)C)NC(=O)[C@H](CC3CCCCC3)NC(=O)[C@H](CCN)NC(=O)[C@@H](CC(C)C)NC(=O)[C@H](C)N(C)C(=O)[C@H](CCCNC(N)=O)NC(=O)[C@H](Cc3ccc(-c4ccccc4)cc3)NC(=O)[C@H](C(C)C)NC2=O)c1` [Example 1402] ({CH2CO}-[dT]Y(Carboxymethyl)D[Phe(3-Me)]V[Bip][Cit][NMeA][dL][Dab][Cha]VTC[AEEA][Aun]-OH; thioether N-14): the IC50 turned out to be 203 nM.
The same measure, in the same setting: in the case of `CC[C@H](C)[C@@H]1NC(=O)[C@H](Cc2ccc(-c3ccccc3)cc2)NC(=O)[C@H](CC(C)C)NC(=O)[C@H](Cc2c[nH]c3ccccc23)NC(=O)[C@H](CC(=O)O)NC(=O)[C@H](Cc2ccc(C(=O)O)cc2)NC(=O)[C@H](Cc2ccc(OCC(=O)O)cc2)NC(=O)CSC[C@@H](C(=O)N[C@@H](CCCCN)C(=O)NCCOCCOCC(=O)NCCCCCCCCCCC(=O)O)NC(=O)[C@H](CO)NC(=O)[C@H](C(C)C)NC(=O)[C@H](CC2CCCCC2)NC(=O)[C@H](CCN)NC(=O)[C@@H](CC(C)C)NC(=O)[C@H](C)N(C)C1=O` [Example 1079] ({CH2CO}-Y(Carboxymethyl)[Phe(4-COOH)]DWL[Bip]I[NMeA][dL][Dab][Cha]VSCK[AEEA][Aun]-OH; thioether N-14) it was 10.8 nM.
Turning to `CCC(C)[C@@H]1NC(=O)[C@H](Cc2ccc(-c3ccccc3)cc2)NC(=O)[C@H](CC(C)C)NC(=O)[C@H](Cc2cccc(C)c2)NC(=O)[C@H](CC(=O)O)NC(=O)[C@H](Cc2ccc(OCC(=O)O)cc2)NC(=O)[C@H](Cc2ccncc2)NC(=O)CSC[C@@H](C(=O)N[C@@H](CCCN)C(=O)NCCOCCOCC(=O)NCCCCCCCCCCC(=O)O)NC(=O)[C@H](C(C)O)NC(=O)[C@H](C(C)C)NC(=O)[C@H](CC2CCCCC2)NC(=O)[C@H](CCN)NC(=O)[C@@H](CC(C)C)NC(=O)[C@H](C)N(C)C1=O` (stereo partly drawn) [Example 2088] ({CH2CO}-[4Pal]Y(Carboxymethyl)D[Phe(3-Me)]L[Bip][Ile(3ξ)][NMeA][dL][Dab][Cha]V[Thr(3ξ)]C[Orn][AEEA][Aun]-OH; thioether N-14), the IC50 stood at 12.8 nM.
For `CC(C)C[C@@H]1NC(=O)[C@H](Cc2c[nH]c3ccccc23)NC(=O)[C@H](CC(=O)O)NC(=O)[C@H](Cc2ccc(C(=O)O)cc2)NC(=O)[C@H](Cc2ccc(OCC(=O)O)cc2)NC(=O)CSC[C@@H](C(=O)N[C@@H](CCCN)C(=O)NCCOCCOCC(=O)NCCCCCCCCCCC(=O)O)NC(=O)[C@H](CCCCN)NC(=O)[C@H](C(C)C)NC(=O)[C@H](CC2CCCCC2)NC(=O)[C@H](CCCC(=O)O)NC(=O)[C@@H](CC(C)C)NC(=O)[C@H](C)N(C)C(=O)[C@H](C(C)C)NC(=O)[C@H](Cc2ccc(-c3ccccc3)cc2)NC1=O` [Example 2152] ({CH2CO}-Y(Carboxymethyl)[Phe(4-COOH)]DWL[Bip]V[NMeA][dL][Aad][Cha]VKC[Orn][AEEA][Aun]-OH; thioether N-14), the half-maximal inhibitory concentration (IC50) was 19.9 nM.
Still for that read-out and setting: in the case of `CCC(C)[C@@H]1NC(=O)[C@H](CC(C)C)NC(=O)[C@H](CCN)NC(=O)[C@@H](CC(C)C)NC(=O)[C@H](C)N(C)C(=O)[C@H](C(C)CC)NC(=O)[C@H](Cc2ccc(-c3ccccc3)cc2)NC(=O)[C@H](C(C)CC)NC(=O)[C@H](Cc2c[nH]c3ccccc23)NC(=O)[C@H](CC(=O)O)NC(=O)[C@H](Cc2ccc(OCC(=O)O)cc2)NC(=O)[C@H](C(C)O)NC(=O)CSC[C@@H](C(=O)N[C@H](CC(N)=O)C(=O)NCCOCCOCC(=O)N[C@@H](CCCN)C(=O)NCCCCCCCCCCC(=O)O)NC(=O)[C@H](CO)NC1=O` (stereo partly drawn) [Example 2082] ({CH2CO}-[Thr(3ξ)]Y(Carboxymethyl)DW[Ile(3ξ)][Bip][Ile(3ξ)][NMeA][dL][Dab]L[Ile(3ξ)]SC[dN][AEEA][Orn][Aun]-OH; thioether N-14) it was 169 nM; in that of `CC(C)C[C@H]1NC(=O)[C@H](C)N(C)C(=O)[C@H](CCCNC(N)=O)NC(=O)[C@H](Cc2ccc(-c3ccccc3)cc2)NC(=O)[C@H](C(C)C)NC(=O)[C@H](Cc2c[nH]c3ccccc23)NC(=O)[C@H](CC(=O)O)NC(=O)[C@H](Cc2ccc(OCC(=O)O)cc2)NC(=O)[C@H](CCCNC(=N)N)NC(=O)CSC[C@@H](C(=O)N[C@@H](CCN)C(=O)NCCCCCCCCCCC(=O)O)NC(=O)[C@H]([C@@H](C)O)NC(=O)[C@H](C(C)C)NC(=O)[C@H](CC2CCCCC2)NC(=O)[C@H](CCN)NC1=O` [Example 1353] ({CH2CO}-RY(Carboxymethyl)DWV[Bip][Cit][NMeA][dL][Dab][Cha]VTC[Dab][Aun]-OH; thioether N-14), 16.3 nM; in that of `CC[C@H](C)[C@@H]1NC(=O)[C@H](Cc2ccc(-c3ccccc3)cc2)NC(=O)[C@H](CC(C)C)NC(=O)[C@H](Cc2c[nH]c3ccccc23)NC(=O)[C@H](CC(=O)O)NC(=O)[C@H](Cc2ccc(C(=O)O)cc2)NC(=O)[C@H](Cc2ccc(OCC(=O)O)cc2)NC(=O)CSC[C@@H](C(=O)N[C@@H](CCN)C(=O)NCCOCCOCC(=O)NCCCCCCCCCCC(=O)O)NC(=O)[C@H](CO)NC(=O)[C@H](C(C)C)NC(=O)[C@H](CC2CCCCC2)NC(=O)[C@H](CCN)NC(=O)[C@@H](CC(C)C)NC(=O)[C@H](C)N(C)C1=O` [Example 1077] ({CH2CO}-Y(Carboxymethyl)[Phe(4-COOH)]DWL[Bip]I[NMeA][dL][Dab][Cha]VSC[Dab][AEEA][Aun]-OH; thioether N-14), 18.3 nM.

The assay is the same for the next values; noted with them: PE-labeled PD-L1-Ig 20 nM final, Jurkat-hPD-1 cells; read-out: Jurkat HPD1 PDL1 IC50.
Take `Cc1cccc(C[C@@H]2NC(=O)[C@H](CC(=O)O)NC(=O)[C@H](Cc3ccc(OCC(=O)O)cc3)NC(=O)[C@H](Cc3ccsc3)NC(=O)CSC[C@@H](C(=O)N[C@@H](CCN)C(=O)NCCCCCCCCCCC(=O)O)NC(=O)[C@H](CO)NC(=O)[C@H](C(C)(C)O)NC(=O)[C@H](CC3CCCCC3)NC(=O)[C@H](Cc3cnc[nH]3)NC(=O)[C@@H](CC(C)C)NC(=O)[C@H](C)N(C)C(=O)[C@H](Cc3ccc(OCC(=O)O)cc3)NC(=O)[C@H](Cc3ccc(-c4ccccc4)cc3)NC(=O)[C@H](Cc3ccc(OCC(=O)O)cc3)NC2=O)c1` [Example 2457] ({CH2CO}-[3Thi]Y(Carboxymethyl)D[Phe(3-Me)]Y(Carboxymethyl)[Bip]Y(Carboxymethyl)[NMeA][dL]H[Cha][Val(3-OH)]SC[Dab][Aun]-OH; thioether N-14): the IC50 was found to be 41.2 nM.
